Assay results reported in the NIST ThermoML archive (doi:10.1007/s10765-009-0625-z).

Assay: xn = mol fraction of the nth substance listed
Settings: Liquid

c1ccc2[nH]ccc2c1 [1H-indole] + Cc1ccc2ccccc2c1
specific volume [m3/kg], 100 kPa
Settings	293.15 K	303.15 K	313.15 K	323.15 K	333.15 K	343.15 K	353.15 K
x1 = 0.25	0.0009744	0.0009821	0.0009893	0.0009968	0.001005	0.001013	0.00102
x1 = 0.5	0.0009522	0.0009621	0.0009692	0.0009765	0.0009836	0.0009909	0.0009983
x1 = 0.75	–	0.0009406	0.0009471	0.0009539	0.0009609	0.0009674	0.0009747
x1 = 1	–	–	–	0.0009295	0.000936	0.0009428	0.0009499

specific volume [m3/kg], 333.15 K, Constant-volume piezometry
Settings	x1 = 0.25	x1 = 0.5	x1 = 0.75	x1 = 1
100 kPa	0.001005	0.0009836	0.0009609	0.000936
10000 kPa	0.0009988	0.0009782	0.000956	0.0009315
20000 kPa	0.000993	0.000973	0.0009513	0.0009273
30000 kPa	0.0009876	0.0009679	0.0009467	0.0009228
40000 kPa	0.0009824	0.0009633	0.0009422	0.0009192
50000 kPa	0.0009776	0.0009586	0.0009379	0.0009157
60000 kPa	0.0009732	0.0009544	0.0009341	–
70000 kPa	0.0009685	0.0009504	0.0009304	–
80000 kPa	0.0009645	0.0009464	0.0009267	–
90000 kPa	0.0009607	0.0009427	0.0009233	–
100000 kPa	0.0009569	0.0009391	0.0009198	–
110000 kPa	0.0009533	0.0009358	0.0009167	–
120000 kPa	0.0009497	0.0009325	0.0009134	–
130000 kPa	0.0009464	0.0009292	0.0009104	–
140000 kPa	0.0009432	0.0009262	0.0009077	–
150000 kPa	0.00094	0.0009231	0.0009048	–
160000 kPa	0.0009369	0.0009202	0.000902	–
170000 kPa	0.000934	0.0009174	–	–
180000 kPa	–	0.0009148	–	–
190000 kPa	–	0.0009122	–	–
200000 kPa	–	0.0009095	–	–
210000 kPa	–	0.000907	–	–
220000 kPa	–	0.0009047	–	–
230000 kPa	–	0.0009023	–	–
240000 kPa	–	0.0008999	–	–
250000 kPa	–	0.0008977	–	–
260000 kPa	–	0.0008956	–	–
270000 kPa	–	0.0008934	–	–
